Patent publication US3955959A, “Herbicide for use in transplanted rice” (priority 1974, dated 1976)

How the values were obtained:
[1] = tested on: transplanted rice; test: Example 2 field test, rice yield; assay type: in vivo, rice (Tainan No. 5, japonica)
Description: (§1) In the tests described in the tables below, the herbicides were formulated and used in granular form in conventional manner. […] The commercial herbicide used was a granular product having 5% active ingredient.
(§2) In the field tests of the herbicide of this invention with transplanted rice, the rice seedlings were grown in conventional manner, by seeding the rice in a typical seedbed of sandy loam to clay soil of the country wherein the test was conducted. For laboratory and greenhouse work the seedlings were obtained by seeding rice in a mixture of soil, e.g., Ray silt loam, and peat in wood flats. For purposes of testing the herbicides on younger rice seedlings (infant or Dapog) the rice was usually allowed to grow for 6-15 days before lifting for transplanting. Older (ordinary) rice plants were usually grown for a period of about 2-3 weeks, or as much as about 7 weeks before lifting. Since the period of growth is dependent upon climatic conditions, a better measure of when to transplant the rice seedling is the leaf stage of growth; for infant or Dapog rice the seedling is lifted at the 1.5-2 leaf stage of growth, and for ordinary seedlings at the 2.5-5 leaf stage. The seedlings were then transplanted to the test plots for evaluation of the herbicide for injury against weed species present with the transplanted rice. The herbicides were then applied to the growth medium of the weeds and transplant rice, either preemergent or postemergent with respect to the weeds and postemergent with respect to the transplanted rice. Application times are designated in the tables as "DAT", meaning "days after transplant". Application rates given in the tables refer to the amount of active ingredient used.
(§3) Rice seedlings (ordinary) of Tainan No. 5 variety (japonica) were transplanted at 19 days of growth. Granular formulations of Herbicides A and B were applied at the 1 leaf stage of grass weed (4 DAT) and 2.5 leaf stage of grass weed (10 DAT). Observations were made at 63 DAT and results reported in Table 2 as an average of 3 replications.

[2] = tested on: Mv (Monochoria vaginalis); test: Example 5 field test, weed control, JAAPR, Japan; assay type: in vivo; conditions: 1.5 kg/ha, 7 DAT
[3] = tested on: Perennials Ek and Sa (Eleocharis kuroguwai, Sagittaria aginashi); test: Example 1 field test, perennial weed control, Iri, Korea; assay type: in vivo; conditions: weed weight at 63 DAT
Description: In the field test 48 day-old seedlings (Watanabe variety) were transplanted to plots 2.5 × 6 m. seeded with the weed seeds indicated in Table 1. At 5 and 10 DAT periods, the herbicides were applied to the plants (now at the 1.2 and 2.0 leaf stage, respectively, of grass weed) at the indicated rate in kilograms per hectare (kg/ha). The weed control and rice injury results for 3 replications are reported in percentages as of the indicated times of observation. The percentages given in the "Perennials" column are based on the weight of the weeds at 63 DAT, i.e., 42 gms/3.6 m^2 for the weedy check.

[4] = tested on: Ann. Cyp (Cyperus spp); test: Example 5 field test, weed control, JAAPR, Japan; conditions: 1.5 kg/ha, 7 DAT
Description: as §1, §2
The rice seedlings were grown to the 1.7 leaf stage for infant seedlings and to the 5.5 leaf stage for ordinary seedlings. Two days after puddling the soil in which the seedlings were to be transplanted, both infant and ordinary seedlings were transplanted into plots 8.5 m^2.
The weed symbol "Obw" represents "other broadleaf weeds" of unspecified identity. Results presented in Table 5 represent the average of 2 replications.

[5] = tested on: transplanted rice; test: Example 2 field test, crop injury; conditions: obs. 63 DAT
Description: as §1, §2, §3

[6] = tested on: Grass: Ec and Ecol (Echinochloa crusgalli, Echinochloa colonum); test: Example 4 field test on ordinary rice, weed control, Munoz, Philippines; assay type: in vivo; conditions: obs. 36 DAT
Description: (§4) Treatments were replicated four times.

[7] = tested on: Sedges: Cd, Ci, Fl (Cyperus difformis, Cyperus iria, Fimbristylis littoralis); test: as above; assay type: in vivo; conditions: obs. 36 DAT
Description: as §4

CCCCOCN(C(=O)CCl)c1c(CC)cccc1CC [Herbicide B, n-(butoxymethyl)-2',6'-diethyl-2-chloroacetanilide, reference compound]
Yield (% of H.W. Check) ([1]; 4 DAT, 1.0 kg/ha): 110% | Yield (% of H.W. Check) ([1]; 4 DAT, 1.5 kg/ha): 103% | Yield (% of H.W. Check) ([1]; 4 DAT, 3.0 kg/ha): 99% | Yield (% of H.W. Check) ([1]; 10 DAT, 1.0 kg/ha): 97% | Yield (% of H.W. Check) ([1]; 10 DAT, 1.5 kg/ha): 98% | Yield (% of H.W. Check) ([1]; 10 DAT, 3.0 kg/ha): 99% | % Weed Control (Mv) ([2]; infant seedlings): 66% | % Weed Control (Mv) ([2]; ordinary seedlings): 86% | % Weed Control (Perennials Ek and Sa) ([3]; 5 DAT, 1.0 kg/ha): 0% | % Weed Control (Perennials Ek and Sa) ([3]; 5 DAT, 1.5 kg/ha): 41% | % Weed Control (Perennials Ek and Sa) ([3]; 5 DAT, 3.0 kg/ha): 0% | % Weed Control (Perennials Ek and Sa) ([3]; 10 DAT, 1.0 kg/ha): 0% | % Weed Control (Perennials Ek and Sa) ([3]; 10 DAT, 1.5 kg/ha): 0% | % Weed Control (Perennials Ek and Sa) ([3]; 10 DAT, 3.0 kg/ha): 0% | control of Ann. Cyp in words [4]: substantially complete control | % Weed Control (Ann. Cyp) ([4]; infant seedlings): 100% | % Weed Control (Ann. Cyp) ([4]; ordinary seedlings): 99% | % Crop Injury, stand ([5]; 4 DAT, 1.0 kg/ha): 0% | % Crop Injury, vigor ([5]; 4 DAT, 1.0 kg/ha): 0% | % Crop Injury, stand ([5]; 4 DAT, 1.5 kg/ha): 0% | % Crop Injury, vigor ([5]; 4 DAT, 1.5 kg/ha): 0% | % Crop Injury, stand ([5]; 4 DAT, 3.0 kg/ha): 0% | % Crop Injury, vigor ([5]; 4 DAT, 3.0 kg/ha): 0% | % Crop Injury, stand ([5]; 10 DAT, 1.0 kg/ha): 0% | % Crop Injury, vigor ([5]; 10 DAT, 1.0 kg/ha): 0% | % Crop Injury, stand ([5]; 10 DAT, 1.5 kg/ha): 0% | % Crop Injury, vigor ([5]; 10 DAT, 1.5 kg/ha): 0% | % Crop Injury, stand ([5]; 10 DAT, 3.0 kg/ha): 0% | % Crop Injury, vigor ([5]; 10 DAT, 3.0 kg/ha): 0% | % Weed control, Grass (Ec and Ecol) ([6]; 5 DAT, 1.0 kg/ha): 100% | % Weed control, Grass (Ec and Ecol) ([6]; 5 DAT, 1.5 kg/ha): 100% | % Weed control, Grass (Ec and Ecol) ([6]; 5 DAT, 3.0 kg/ha): 100% | % Weed control, Grass (Ec and Ecol) ([6]; 14 DAT, 1.0 kg/ha): 0% | % Weed control, Grass (Ec and Ecol) ([6]; 14 DAT, 1.5 kg/ha): 0% | % Weed control, Grass (Ec and Ecol) ([6]; 14 DAT, 3.0 kg/ha): 50% | % Weed control, Sedges (Cd, Ci, Fl) ([7]; 5 DAT, 1.0 kg/ha): 100% | % Weed control, Sedges (Cd, Ci, Fl) ([7]; 5 DAT, 1.5 kg/ha): 100% | % Weed control, Sedges (Cd, Ci, Fl) ([7]; 5 DAT, 3.0 kg/ha): 100% | % Weed control, Sedges (Cd, Ci, Fl) ([7]; 14 DAT, 1.0 kg/ha): 0% | % Weed control, Sedges (Cd, Ci, Fl) ([7]; 14 DAT, 1.5 kg/ha): 0% | % Weed control, Sedges (Cd, Ci, Fl) ([7]; 14 DAT, 3.0 kg/ha): 50%
